# Laboratory results taken from article PMC3281842, “Crystal Structure of TDRD3 and Methyl-Arginine Binding Characterization of TDRD3, SMN and SPF30” (PLoS ONE, 2012).
# Read-outs that look alike come from different tables or passages of the source. Square brackets hold non-standard residues; d marks the D form. Peptide text beside a SMILES is read from it. Arg(Me2a) = CN(C)C(=N)NCCC[C@H](N)C(=O)O; Arg(Me2s) = CN=C(NC)NCCC[C@H](N)C(=O)O; Arg(Me) = CNC(=N)NCCC[C@H](N)C(=O)O
# What was measured:
# TDRD3 (aa 520–633) [1] = target: T1, TDRD3 (aa 520–633) (Homo sapiens, UniProt Q9H7E2); assay: Fluorescence polarization binding assay, TDRD3 Tudor domain; settings: fluorescein-labeled peptide, 20 mM Tris pH 7.5, 50 mM NaCl, 1 mM DTT, 0.01% Triton X-100, 25°C, average of three independent measurements, NB = no detectable binding
# T1 construct: TDRD3 (aa 520–633); His tag (pET28-MHL) (N); made in house; host or cells: Escherichia coli BL21 (DE3)
# Description: TDRD3 contains a Tudor domain at its C-terminus. […] In order to characterize its binding specificity and affinity quantitatively, we performed a series of fluorescence polarization (FP) binding assays using our fluorescein-labeled peptide library, which includes GAR motif-containing SmD3 and PIWIL1 peptides, PGM motif-containing SmB peptides, and histone H3R2 peptides (Table 1 and Fig. 1). A low salt concentration (50 mM NaCl) is used in the FP binding assay due to the weak binding affinities of these proteins to their ligands. At this salt concentration, the binding affinities are increased about four times compared to the data measured at 200 mM NaCl (Fig. S1), which will save the reagents and make the Kd measurement more reliable. […] Therefore, TDRD3 has a different binding selectivity than SND1, which we have previously established that the extended Tudor domain of SND1 preferentially binds symmetrically dimethylated arginine PIWIL1 peptides. Similar to SND1, the binding selectivity of TDRD3 among these three different arginine methylation marks is about 2 to 4-fold (Table 1).
# (§1) Figure 1 Fluorescence polarization binding curves of TDRD3 (aa 520–633), SMN (aa 80–170), and SPF30 (aa 65–150) to the PIWIL1-R4 peptides. The buffer used in the fluorescence polarization assay is 20 mM Tris pH 7.5, 50 mM NaCl, 1 mM DTT and 0.01% Triton X-100. The data are measured at 25°C and corrected for background by subtracting the free-labeled peptide background. The Kd values are the average of three independent measurements.
# (§2) All the regular and fluorescent peptides used this study were synthesized by Tufts University Core Services (Boston, USA). The fluorescence polarization assay was carried out as described before. The buffer used in the fluorescence polarization assay is 20 mM Tris pH 7.5, 50 mM NaCl, 1 mM DTT and 0.01% Triton X-100. An excitation wavelength of 485 nm and an emission wavelength of 528 nm are used. The data are measured at 25°C and corrected for background by subtracting the free-labeled peptide background. The data were collected by the Synergy 2 (BioTec, USA) fluorescence polarization program and were fit to one-site binding model using Origin 7 (MicroCal, Inc.). The Kd values are the average of three independent measurements.
# SPF30 (aa 65–150) = target: T2, SPF30 (aa 65–150) (Homo sapiens, UniProt O75940); assay: Fluorescence polarization binding assay, SPF30 Tudor domain; settings: fluorescein-labeled peptide, 20 mM Tris pH 7.5, 50 mM NaCl, 1 mM DTT, 0.01% Triton X-100, 25°C, average of three independent measurements, NB = no detectable binding
# T2 construct: SPF30 (aa 65–150); His tag (pET28-MHL) (N); made in house; host or cells: Escherichia coli BL21 (DE3)
# T2 sequence (O75940 65-150): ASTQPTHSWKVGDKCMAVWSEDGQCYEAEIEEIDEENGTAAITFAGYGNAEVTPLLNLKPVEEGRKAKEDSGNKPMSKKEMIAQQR
# Description: as §1, §2
# SMN (aa 80–170) = target: T3, SMN (aa 80–170) (Homo sapiens, UniProt Q16637); assay: Fluorescence polarization binding assay, SMN Tudor domain; settings: for Kd: fluorescence polarization, fluorescein-labeled peptide, 20 mM Tris pH 7.5, 50 mM NaCl, 1 mM DTT, 0.01% Triton X-100, 25°C, average of three independent measurements, NB = no detectable binding
# T3 construct: SMN (aa 80–170); His tag (pET28-MHL) (N); made in house; host or cells: Escherichia coli BL21 (DE3)
# Description: as §1, §2
# SND1 (aa 650–910) [2] = target: T4, SND1 (aa 650–910) (Homo sapiens, UniProt Q7KZF4); settings: values marked * in Table 1; NB = no detectable binding; ref Liu K et al, PNAS, 2010 [20]; cited from earlier work
# T4 construct: SND1 (aa 650–910)
# T4 sequence (Q7KZF4 650-910): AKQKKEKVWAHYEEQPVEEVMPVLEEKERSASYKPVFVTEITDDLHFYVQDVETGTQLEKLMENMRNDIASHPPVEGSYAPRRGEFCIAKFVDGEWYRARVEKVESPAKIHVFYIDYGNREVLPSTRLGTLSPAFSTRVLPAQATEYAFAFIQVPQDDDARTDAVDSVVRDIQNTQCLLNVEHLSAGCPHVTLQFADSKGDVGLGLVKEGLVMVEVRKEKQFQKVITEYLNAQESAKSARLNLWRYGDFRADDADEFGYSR
# From the text: Table 1 Binding affinities of TDRD3 (aa 520–633), SMN (aa 80–170), and SPF30 (aa 65–150) to different methyl-arginine peptides in comparison with SND1 (aa 650–910). | column: Kd (µM) / SND1 (aa 650–910)
# TDRD3 (aa 520–633) [3] = target: T1, TDRD3 (aa 520–633); assay: ITC (Isothermal Titration Calorimetry) binding, TDRD3; settings: 20 mM Tris pH 8.0, 200 mM NaCl, 25°C, one-site binding model, NB = no detectable binding
# Description: Figure 2 Preferential binding of TDRD3 to asymmetrical dimethylated H3R17 peptide over symmetrical dimethylated H3R17 peptide. The ITC measurements were done in 20 mM Tris pH 8.0 and 200 mM NaCl using the same TDRD3 construct as used in Table 1. The measurements were taken at 25°C. Binding isotherms were plotted and analyzed using Origin Software (MicroCal Inc.). The ITC measurements were fit to a one-site binding model. (A) Histone H3R17me2a peptide (TGGKAPRme2aKQLATKA). (B) Histone H3R17me2s peptide (TGGKAPRme2sKQLATKA). (C) PIWIL1_R4me2a peptide (TGRme2aARARA). TEXT PRINTED IN THE PICTURE: (A) H3R17me2a: Kd>1000μM | (B) H3R17me2s: No binding | (C) PIWIL1_R4me2a: Kd>500μM
# The protocol for ITC (Isothermal Titration Calorimetry) was carried out as described before. The ITC buffer used in this study is 20 mM Tris pH 8.0 and 200 mM NaCl. The measurements were taken at 25°C. Binding isotherms were plotted and analyzed using Origin Software (MicroCal Inc.). The ITC measurements were fit to a one-site binding model.
# SND1 (aa 650–910) [4] = target: T4, SND1 (aa 650–910); assay: Fluorescence polarization binding assay, SND1 extended Tudor domain; settings: values without asterisk in Table 1, NB = no detectable binding
# Description: as §2
# T3 sequence (Q16637 80-170): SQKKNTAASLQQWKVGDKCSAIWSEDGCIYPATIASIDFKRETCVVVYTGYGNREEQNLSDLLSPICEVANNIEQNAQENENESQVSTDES
# T1 sequence (Q9H7E2 520-633): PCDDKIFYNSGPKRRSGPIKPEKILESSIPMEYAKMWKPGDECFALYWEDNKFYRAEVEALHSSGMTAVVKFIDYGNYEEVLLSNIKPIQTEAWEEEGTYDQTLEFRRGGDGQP
Compound,Kd (TDRD3 (aa 520–633) [1]) [µM],Kd (SPF30 (aa 65–150)) [µM],Kd (SMN (aa 80–170)) [µM],other results
CN=C(NC)NCCC[C@H](NC(=O)CNC(=O)[C@H](CCCNC(=N)N)NC(=O)CNC(=O)CN)C(=O)NCC(=O)N[C@@H](CCCNC(=N)N)C(=O)NCC(=O)O [SmD3RSDMA] (H-GGRG[Arg(Me2s)]GRG-OH),> 400,> 500,,
"ARTKQTARK(me)1/2/3STGGKA [Histone H3K9me1/2/3, histone H3 peptides mono-, di- or trimethylated at K9, reported in one line]",,> 500,> 500,Kd (SND1 (aa 650–910) [2]): > 500 µM
CC(C)C[C@H](NC(=O)[C@H](CCC(N)=O)NC(=O)[C@H](CCCCN)NC(=O)[C@H](CCCNC(=N)N(C)C)NC(=O)[C@@H]1CCCN1C(=O)[C@H](C)NC(=O)[C@H](CCCCN)NC(=O)CNC(=O)CNC(=O)[C@@H](N)[C@@H](C)O)C(=O)N[C@@H](C)C(=O)N[C@H](C(=O)N[C@@H](CCCCN)C(=O)N[C@@H](C)C(=O)O)[C@@H](C)O [H3R17me2a],,,,Kd (TDRD3 (aa 520–633) [3]): > 1000 µM
"ARTK (me)1/2/3 QTARKST [Histone H3K4me1/2/3, histone H3 peptides mono-, di- or trimethylated at K4, reported in one line]",,> 500,> 500,Kd (SND1 (aa 650–910) [2]): > 500 µM
C[C@H](NC(=O)[C@H](CCCNC(=N)N)NC(=O)CNC(=O)[C@H](CCCNC(=N)N)NC(=O)[C@H](C)NC(=O)[C@H](CCCNC(=N)N)NC(=O)[C@H](C)NC(=O)[C@H](CCCNC(=N)N)NC(=O)[C@H](C)NC(=O)[C@H](CCCNC(=N)N(C)C)NC(=O)CNC(=O)[C@@H](N)[C@@H](C)O)C(=O)N[C@@H](CCCNC(=N)N)C(=O)NCC(=O)N[C@@H](CCC(N)=O)C(=O)N[C@@H](CCC(=O)O)C(=O)O [PIWIL1-R4me2a] (H-TG[Arg(Me2a)]ARARARGRARGQE-OH),> 150,> 400,,
CN=C(NC)NCCC[C@H](NC(=O)[C@@H]1CCCN1C(=O)[C@H](C)NC(=O)[C@H](CCCCN)NC(=O)CNC(=O)CNC(=O)[C@@H](N)[C@@H](C)O)C(=O)N[C@@H](CCCCN)C(=O)N[C@@H](CCC(N)=O)C(=O)N[C@@H](CC(C)C)C(=O)N[C@@H](C)C(=O)N[C@H](C(=O)N[C@@H](CCCCN)C(=O)N[C@@H](C)C(=O)O)[C@@H](C)O [H3R17me2s],,,,Kd (TDRD3 (aa 520–633) [3]): > 500 µM; Kd TDRD3 (aa 520–633) by ITC (TDRD3 (aa 520–633) [3]): No binding
C[C@H](NC(=O)[C@H](CCCNC(=N)N)NC(=O)[C@H](C)NC(=O)[C@H](CCCNC(=N)N)NC(=O)[C@H](C)NC(=O)[C@H](CCCNC(=N)N(C)C)NC(=O)CNC(=O)[C@@H](N)[C@@H](C)O)C(=O)O [PIWIL1_R4me2a peptide (TGRme2aARARA)] (H-TG[Arg(Me2a)]ARARA-OH; N-terminus and C-terminus assumed),,,,Kd (TDRD3 (aa 520–633) [3]): > 500 µM
CN=C(NC)NCCC[C@H](NC(=O)CNC(=O)[C@@H]1CCCN1C(=O)[C@@H]1CCCN1C(=O)[C@@H](N)Cc1ccc(O)cc1)C(=O)NCC(=O)NCC(=O)N1CCC[C@H]1C(=O)N1CCC[C@H]1C(=O)N1CCC[C@H]1C(=O)O [PGM(SmB165SD)] (H-YPPG[Arg(Me2s)]GGPPP-OH; N-terminus and C-terminus assumed),,> 500,> 300,Kd (SND1 (aa 650–910) [4]): > 500 µM
CNC(=N)NCCC[C@H](NC(=O)CNC(=O)[C@@H](N)[C@@H](C)O)C(=O)N[C@@H](C)C(=O)N[C@@H](CCCNC(=N)N)C(=O)N[C@@H](C)C(=O)N[C@@H](CCCNC(=N)N)C(=O)N[C@@H](C)C(=O)N[C@@H](CCCNC(=N)N)C(=O)NCC(=O)N[C@@H](CCCNC(=N)N)C(=O)N[C@@H](C)C(=O)N[C@@H](CCCNC(=N)N)C(=O)NCC(=O)N[C@@H](CCC(N)=O)C(=O)N[C@@H](CCC(=O)O)C(=O)O [PIWIL1-R4me1] (H-TG[Arg(Me)]ARARARGRARGQE-OH; N-terminus and C-terminus assumed),> 500,> 500,> 150,"binding affinity to SMN, times weaker than for PIWIL1_R4me2s (SMN (aa 80–170); ratio of FP Kd values relative to PIWIL1_R4me2s (Kd 34 µM)): over 4 times"
CN=C(NC)NCCC[C@H](NC(=O)[C@H](CCSC)NC(=O)CNC(=O)[C@@H]1CCCN1C(=O)[C@@H]1CCCN1)C(=O)N1CCC[C@H]1C(=O)N1CCC[C@H]1C(=O)N1CCC[C@H]1C(=O)N1CCC[C@H]1C(=O)NCC(=O)O [PGM(SmB214SD)] (H-PPGM[Arg(Me2s)]PPPPG-OH; N-terminus and C-terminus assumed),,> 500,> 400,Kd (SND1 (aa 650–910) [4]): > 500 µM
CN=C(NC)NCCC[C@H](NC(=O)CNC(=O)[C@@H](N)[C@@H](C)O)C(=O)N[C@@H](C)C(=O)N[C@@H](CCCNC(=N)N)C(=O)N[C@@H](C)C(=O)N[C@@H](CCCNC(=N)N)C(=O)N[C@@H](C)C(=O)N[C@@H](CCCNC(=N)N)C(=O)NCC(=O)N[C@@H](CCCNC(=N)N)C(=O)N[C@@H](C)C(=O)N[C@@H](CCCNC(=N)N)C(=O)NCC(=O)N[C@@H](CCC(N)=O)C(=O)N[C@@H](CCC(=O)O)C(=O)O [PIWIL1-R4me2s] (H-TG[Arg(Me2s)]ARARARGRARGQE-OH),> 300,> 200,,
CN=C(NC)NCCC[C@H](NC(=O)[C@H](CCSC)NC(=O)CNC(=O)[C@@H]1CCCN1C(=O)[C@@H]1CCCN1)C(=O)NCC(=O)N1CCC[C@H]1C(=O)N1CCC[C@H]1C(=O)N1CCC[C@H]1C(=O)O [PGM(SmB221SD)] (H-PPGM[Arg(Me2s)]GPPP-OH; N-terminus and C-terminus assumed),,> 500,> 500,Kd (SND1 (aa 650–910) [4]): > 500 µM
